From patent US10611740B2, “Aryl dihydro-2H-benzo[b][1,4]oxazine sulfonamide and related compounds for use as agonists of RORγ and the treatment of disease” (Lycera Corporation, priority 2015, dated 2020)

Key:
RORγ-LBD = molecular target: T1, RORγ-LBD (Homo sapiens, UniProt P51449); test: RORγ-Ligand Binding Domain (LBD) TR-FRET Assay; assay type: biochemical;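 as to TR-FRET Assay Max Response: 665/615 nm ratio relative to signal without ursolic acid or compound set at 100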
T1 construct: made in house; host or cells: SF9 cells (baculovirus)
T1 sequence (P51449 269-508 limits assumed): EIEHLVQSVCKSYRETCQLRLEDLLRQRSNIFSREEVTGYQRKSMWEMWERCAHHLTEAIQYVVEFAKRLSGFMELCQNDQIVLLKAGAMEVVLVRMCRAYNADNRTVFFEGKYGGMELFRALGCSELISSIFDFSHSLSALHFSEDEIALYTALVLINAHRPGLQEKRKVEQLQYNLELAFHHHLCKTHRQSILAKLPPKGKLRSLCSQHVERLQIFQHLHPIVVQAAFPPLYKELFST
In short: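 Compounds, diluted in DMSO and then in assay buffer (1% DMSO final), were combined with His-tagged RORγ-LBD lysate at roughly 3 nM final and a 200 nM biotinylated SRC1 LXXLL peptide. Ursolic acid was included at 2 μM final. Coactivator recruitment was detected by TR-FRET.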

Gal4-RORγ-LBD = molecular target: T2, Gal4-RORγ-LBD (Homo sapiens, UniProt P51449); test: Gal4-RORγ Luciferase Reporter Assay in HEK-293T Cells; assay type: cell-based; details: HEK-293 cells, 2 μM ursolic acid
T2 construct: expressed in transfected cells; host or cells: HEK-293 cells (pcDNA3.1neo plasmid)
T2 sequence (P51449 269-508 limits assumed): T1 sequence (P51449 269-508 limits assumed)
In short: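 HEK-293 cells were transiently co-transfected with Gal4-RORγ-LBD and pGL4.31 Gal4-luciferase, with ursolic acid added at 2 μM final. Compounds were incubated overnight at 37° C. in 0.2% DMSO and luminescence read with One-Glo. Max Response is the upper plateau of a 4-parameter logistic fit, with signal lacking ursolic acid or compound set to 100.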

O=C(O)[C@]1(C[C@H]2CN(S(=O)(=O)c3cccc(C(F)(F)F)c3)c3cc(-c4cc(F)ccc4F)ccc3O2)CCNC1=O [Compound 77A, (S)-3-(((S)-6-(2,5-difluorophenyl)-4-((3-(trifluoromethyl)phenyl)-sulfonyl)-3,4-dihydro-2H-benzo[b][1,4]oxazin-2-yl)methyl) 2-oxopyrrolidine-3-carboxylic acid]
EC50 (RORγ-LBD): < 500 nM
TR-FRET Assay Max Response (RORγ-LBD): ** (The symbol “**” indicates a value in the range of greater than 90 to 150)
Gal4-RORγ Assay Max Response (Gal4-RORγ-LBD): **** (The symbol “****” indicates a value greater than 200)

O=C(O)[C@@]1(C[C@H]2CN(S(=O)(=O)c3cccc(C(F)(F)F)c3)c3cc(-c4cc(F)ccc4F)ccc3O2)CCNC1=O [Compound 77B, (R)-3-(((S)-6-(2,5-difluorophenyl)-4-((3-(trifluoromethyl)phenyl)-sulfonyl)-3,4-dihydro-2H-benzo[b][1,4]oxazin-2-yl)methyl)-2-oxopyrrolidine-3-carboxylic acid]
EC50 (RORγ-LBD): < 500 nM
TR-FRET Assay Max Response (RORγ-LBD): *** (The symbol “***” indicates a value in the range of greater than 150 to 200)
EC50 (Gal4-RORγ-LBD): < 500 nM
Gal4-RORγ Assay Max Response (Gal4-RORγ-LBD): ** (The symbol “**” indicates a value in the range of greater than 90 to 150)

O=C(O)C1(C[C@H]2CN(S(=O)(=O)c3cccc(C(F)(F)F)c3)c3cc(-c4cccc(Cl)c4)ccc3O2)CCOCC1 [Compound 78A, (S)-4-((6-(3-chlorophenyl)-4-((3-(trifluoromethyl)phenyl)sulfonyl)-3,4-dihydro-2H-benzo[b][1,4]-oxazin-2-yl)methyl)tetrahydro-2H-pyran-4-carboxylic acid]
EC50 (RORγ-LBD): < 500 nM
TR-FRET Assay Max Response (RORγ-LBD): ** (The symbol “**” indicates a value in the range of greater than 90 to 150)
EC50 (Gal4-RORγ-LBD): < 500 nM
Gal4-RORγ Assay Max Response (Gal4-RORγ-LBD): ** (The symbol “**” indicates a value in the range of greater than 90 to 150)

Cc1cc(Cl)cc(-c2ccc3c(c2)N(S(=O)(=O)c2cccc(C(F)(F)F)c2)C[C@H](CC2(C(=O)O)CCOCC2)O3)c1 [Compound 78B, (S)-4-((6-(3-chloro-5-methyl-phenyl)-4-((3-(trifluoromethyl)-phenyl)sulfonyl)-3,4-dihydro-2H-benzo[b][1,4]oxazin-2-yl)methyl)tetrahydro-2H-pyran-4-carboxylic acid]
EC50 (RORγ-LBD): < 500 nM
TR-FRET Assay Max Response (RORγ-LBD): ** (The symbol “**” indicates a value in the range of greater than 90 to 150)
EC50 (Gal4-RORγ-LBD): < 500 nM
Gal4-RORγ Assay Max Response (Gal4-RORγ-LBD): ** (The symbol “**” indicates a value in the range of greater than 90 to 150)

O=C(O)C1(C[C@H]2CN(S(=O)(=O)c3cccc(C(F)(F)F)c3)c3cc(-c4cc(F)cc(F)c4Cl)ccc3O2)CCOCC1 [Compound 78C, (S)-4-((6-(2-chloro-3,5-difluoro-phenyl)-4-((3-(trifluoromethyl)-phenyl)sulfonyl)-3,4-dihydro-2H-benzo[b][1,4]oxazin-2-yl)methyl)tetrahydro-2H-pyran-4-carboxylic acid]
EC50 (RORγ-LBD): < 500 nM
TR-FRET Assay Max Response (RORγ-LBD): ** (The symbol “**” indicates a value in the range of greater than 90 to 150)
EC50 (Gal4-RORγ-LBD): < 500 nM
Gal4-RORγ Assay Max Response (Gal4-RORγ-LBD): *** (The symbol “***” indicates a value in the range of greater than 150 to 200)

O=C(O)C1(C[C@H]2CN(S(=O)(=O)c3cccc(C(F)(F)F)c3)c3cc(-c4cc(F)ccc4Cl)ccc3O2)CCOCC1 [Compound 78D, (S)-4-((6-(2-chloro-5-fluoro-phenyl)-4-((3-(trifluoromethyl)-phenyl)sulfonyl)-3,4-dihydro-2H-benzo[b][1,4]oxazin-2-yl)methyl)tetrahydro-2H-pyran-4-carboxylic acid]
EC50 (RORγ-LBD): < 500 nM
TR-FRET Assay Max Response (RORγ-LBD): ** (The symbol “**” indicates a value in the range of greater than 90 to 150)
EC50 (Gal4-RORγ-LBD): < 500 nM
Gal4-RORγ Assay Max Response (Gal4-RORγ-LBD): *** (The symbol “***” indicates a value in the range of greater than 150 to 200)

O=C(O)C1(C[C@H]2CN(S(=O)(=O)c3cccc(C(F)(F)F)c3)c3cc(-c4cc(F)cc(Cl)c4)ccc3O2)CCOCC1 [Compound 78E, (S)-4-((6-(3-chloro-5-fluoro-phenyl)-4-((3-(trifluoromethyl)-phenyl)sulfonyl)-3,4-dihydro-2H-benzo[b][1,4]oxazin-2-yl)methyl)tetrahydro-2H-pyran-4-carboxylic acid]
EC50 (RORγ-LBD): < 500 nM
TR-FRET Assay Max Response (RORγ-LBD): ** (The symbol “**” indicates a value in the range of greater than 90 to 150)
EC50 (Gal4-RORγ-LBD): < 500 nM
Gal4-RORγ Assay Max Response (Gal4-RORγ-LBD): ** (The symbol “**” indicates a value in the range of greater than 90 to 150)

O=C(O)C1(C[C@H]2CN(S(=O)(=O)c3cccc(C(F)(F)F)c3)c3cc(-c4cccc(Cl)c4F)ccc3O2)CCOCC1 [Compound 78F, (S)-4-((6-(3-chloro-2-fluoro-phenyl)-4-((3-(trifluoromethyl)-phenyl)sulfonyl)-3,4-dihydro-2H-benzo[b][1,4]oxazin-2-yl)methyl)tetrahydro-2H-pyran-4-carboxylic acid]
EC50 (RORγ-LBD): < 500 nM
TR-FRET Assay Max Response (RORγ-LBD): ** (The symbol “**” indicates a value in the range of greater than 90 to 150)
EC50 (Gal4-RORγ-LBD): < 500 nM
Gal4-RORγ Assay Max Response (Gal4-RORγ-LBD): ** (The symbol “**” indicates a value in the range of greater than 90 to 150)

Cc1cc(C)cc(-c2ccc3c(c2)N(S(=O)(=O)c2cccc(C(F)(F)F)c2)C[C@H](CC2(C(=O)O)CCOCC2)O3)c1 [Compound 78G, (S)-4-((6-(3,5-dimethylphenyl)-4-((3-(trifluoromethyl)phenyl)-sulfonyl)-3,4-dihydro-2H-benzo[b][1,4]oxazin-2-yl)methyl)tetrahydro-2H-pyran-4-carboxylic acid]
EC50 (RORγ-LBD): < 500 nM
TR-FRET Assay Max Response (RORγ-LBD): ** (The symbol “**” indicates a value in the range of greater than 90 to 150)
EC50 (Gal4-RORγ-LBD): < 500 nM
Gal4-RORγ Assay Max Response (Gal4-RORγ-LBD): ** (The symbol “**” indicates a value in the range of greater than 90 to 150)

O=C(O)C1(C[C@H]2CN(S(=O)(=O)c3cccc(C(F)(F)F)c3)c3cc(-c4cccc(C(F)(F)F)c4)ccc3O2)CCOCC1 [Compound 78H, (S)-4-((6-(3-(trifluoromethyl)-phenyl)-4-((3-(trifluoromethyl)-phenyl)sulfonyl)-3,4-dihydro-2H-benzo[b][1,4]oxazin-2-yl)methyl)tetrahydro-2H-pyran-4-carboxylic acid]
EC50 (RORγ-LBD): < 500 nM
TR-FRET Assay Max Response (RORγ-LBD): ** (The symbol “**” indicates a value in the range of greater than 90 to 150)
EC50 (Gal4-RORγ-LBD): < 500 nM
Gal4-RORγ Assay Max Response (Gal4-RORγ-LBD): * (The symbol “*” indicates a value in the range of 25 to 90)

C[C@H](CC(=O)O)[C@H]1CN(S(=O)(=O)c2cccc(C(F)(F)F)c2)c2cc(-c3cc(F)cc(F)c3Cl)ccc2O1 [Compound 80B, (R)-3-((S)-6-(2-chloro-3,5-difluorophenyl)-4-((3-(trifluoromethyl)phenyl)sulfonyl)-3,4-dihydro-2H-benzo[b][1,4]-oxazin-2-yl)butanoic acid]
EC50 (RORγ-LBD): < 500 nM
TR-FRET Assay Max Response (RORγ-LBD): ** (The symbol “**” indicates a value in the range of greater than 90 to 150)
EC50 (Gal4-RORγ-LBD): 500 to 5000 nM
Gal4-RORγ Assay Max Response (Gal4-RORγ-LBD): ** (The symbol “**” indicates a value in the range of greater than 90 to 150)

C[C@@H](CC(=O)O)[C@H]1CN(S(=O)(=O)c2cccc(C(F)(F)F)c2)c2cc(-c3cc(F)cc(F)c3Cl)ccc2O1 [Compound 80C, (S)-3-((S)-6-(2-chloro-3,5-difluorophenyl)-4-((3-(trifluoromethyl)phenyl)sulfonyl)-3,4-dihydro-2H-benzo[b][1,4]-oxazin-2-yl)butanoic acid]
EC50 (RORγ-LBD): < 500 nM
TR-FRET Assay Max Response (RORγ-LBD): *** (The symbol “***” indicates a value in the range of greater than 150 to 200)
EC50 (Gal4-RORγ-LBD): < 500 nM
Gal4-RORγ Assay Max Response (Gal4-RORγ-LBD): ** (The symbol “**” indicates a value in the range of greater than 90 to 150)

CC(=O)N[C@H]1C[C@@](C[C@H]2CN(S(=O)(=O)c3cccc(C(F)(F)F)c3)c3cc(-c4cc(F)cc(OC(F)F)c4)ccc3O2)(C(=O)O)C1 [Compound 84, (1s,3R)-3-acetamido-1-(((S)-6-(3-(difluoromethoxy)-5-fluorophenyl)-4-((3-(trifluoromethyl)phenyl)sulfonyl)-3,4-dihydro-2H-benzo[b][1,4]oxazin-2-yl)methyl)cyclobutane-1-carboxylic acid]
EC50 (RORγ-LBD): < 500 nM
TR-FRET Assay Max Response (RORγ-LBD): ** (The symbol “**” indicates a value in the range of greater than 90 to 150)
EC50 (Gal4-RORγ-LBD): 500 to 5000 nM
Gal4-RORγ Assay Max Response (Gal4-RORγ-LBD): * (The symbol “*” indicates a value in the range of 25 to 90)

CC(=O)N[C@H]1C[C@](C[C@H]2CN(S(=O)(=O)c3cccc(C(F)(F)F)c3)c3cc(-c4cc(F)cc(OC(F)F)c4)ccc3O2)(C(=O)O)C1 [Compound 85, (1r,3S)-3-acetamido-1-(((S)-6-(3-(difluoromethoxy)-5-fluorophenyl)-4-((3-(trifluoromethyl)phenyl)sulfonyl)-3,4-dihydro-2H-benzo[b][1,4]oxazin-2-yl)methyl)cyclobutane-1-carboxylic Acid]
EC50 (RORγ-LBD): < 500 nM
TR-FRET Assay Max Response (RORγ-LBD): ** (The symbol “**” indicates a value in the range of greater than 90 to 150)
EC50 (Gal4-RORγ-LBD): < 500 nM
Gal4-RORγ Assay Max Response (Gal4-RORγ-LBD): ** (The symbol “**” indicates a value in the range of greater than 90 to 150)
